Data published in patent publication US8420606B2, “Method of utilizing physiological activity of rare saccharide and composition containing rare saccharide” (priority 2002, dated 2013).
“Also recorded” adds a separate entry of the source.

Columns and labels:
[1] = system: skin keratinocyte (HaCaT); experiment: proliferation of cultured cells, MTT method, HaCaT; type: cell-based, human; conditions: saccharide 50 mM, 4 to 5 days
Method: Various kinds of rare saccharides were added at a concentration of 50 mM to culture media under the following conditions, and an influence of each rare saccharide upon the progress of proliferation of cancer cell strains was examined.
(1) Target cells to which the rare saccharides were added: Hepatic cancer cells (HepG2), uterine cancer cells (He1a), ovary cancer cells (OVCAR3), and skin keratinocyte (HaCaT) were selected as target cells to which the rare saccharides were added.
(2) Rare saccharides added: In addition to D-allose, glucose and D-altros as rare saccharides belonging to ketose were added, as other comparative saccharides, to the addition target cells. Also, D-fructose was employed as a control.
(3) Experiment method: A number 3,000-5,000 of addition target cells per type were inoculated into a multi-well plastic dish (hereinafter referred to as a “well”) having 96 wells, and were cultured for 4 to 5 days in a culture medium supplemented with 5 to 10% of Fetal Bovine Serum (FBS) depending on the cell types. […] To examine the influence upon the cell proliferation, the cell number was measured in units of 24 hours by using the MTT method described below. […]
(2) Test method: The cells were treated with TEP to prepare a cell suspension liquid. […] The absorbance of the liquid was measured at a wavelength of 570 to 600 nm by using a spectrophotometer. […]

[2] = system: temporary eye ischemia model (rat); experiment: retina ischemia-reperfusion, glutamate by microdialysis; type: in vivo; conditions: D-allose 200 mg/kg intravenous before the ischemia
Method: (1) Purpose: This Example 6 is intended to study an influence of D-allose upon the retina in a temporary eye ischemia model (rat). (2) Method: The temporary eye ischemia model was prepared by raising the intraocular pressure up to a level of about 120 mmHg. The model was subjected to ischemia for 45 minutes and then to reperfusion. The concentration of glutamate released in the ischemia-reperfusion process was measured by the microdialysis method.

[3] = system: glutamate release from hippocampus; experiment: temporary brain ischemia, glutamate outside hippocampus neurons by micro-dialysis; type: in vivo, gerbil
Method: (2) Method: The bilateral common carotid artery of a gerbil was shut off for 5 minutes. After 1 week, the gerbil was sacrificed and a sample was prepared in accordance with the ordinary method, followed by hematoxyline eosin dyeing. The survival rate was measured by counting the number of hippocampus neurons while looking at them under a microscope. Experiments were performed on a normal control group, a group subjected to only ischemia, and a group administrated with 200 mg/kg of D-allose or D-psicose before ischemia. It is known that glutamates released in large amount from the neurons with ischemia are toxic to the neurons. Such a point was examined by fixing the gerbil to a brain position fixing device, perfusing a solution, in which oxidase glutamate is dissolved, to the hippocampus through a probe for micro-dialysis, and measuring the glutamate concentration outside the hippocampus neurons. Also, the inventors have clarified the relationship between the metabolism of glucose and the action mechanism of D-allose with ischemia by pre-administrating D-allose and 2-deoxiglucose.

[4] = system: microglia migration; experiment: brain ischemia model, number of appearing microglias; type: in vivo, gerbil; conditions: 200 mg/kg femoral vein 5 minutes before and immediately after 5 minutes ischemia; after 1 week
Method: In this Example 11 described below, an influence of ketohexose belonging to the rare saccharides upon the number of microglias appearing with ischemia is examined. […] D-psicose was used as the ketohexose belonging to the rare saccharides. As a brain ischemia model, the bilateral common carotid artery of a male gerbil with weight of about 70 g was shut off for 5 minutes. In this model, neurons in the hippocampus CA1 area of a brain are peculiarly brought to ischemic cell necrosis.
Comparative studies were made on three exemplified groups, i.e., one group not subjected to ischemia (control: Sham), another group subject to ischemia+treatment with physiological saline, and still another group subject to ischemia+treatment with D-psicose.
The D-psicose treatment was performed through the steps of dissolving D-psicose in physiological saline to prepare a D-psicose solution with concentration of 200 mg/mL, and administrating the D-psicose solution to the ischemia model through the femoral vein in units of 200 mg/kg at 5 minuets before ischemia and immediately after the ischemia. The physiological saline treatment was performed by administering only physiological saline instead of the D-psicose solution. After 1 week from the ischemia, perfusion fixation was made and a frozen brain sample of 20 μm was prepared, followed by hematoxyline eosin dyeing.

[5] = system: rat intestinal tract; experiment: glucose absorption in reversed intestinal tract; conditions: D-psicose at concentration comparable to that of glucose
Method: To clarify an influence of D-psicose upon the absorption of glucose, the influence of D-psicose upon the absorption of glucose was analyzed by using a rat intestinal tract. The absorption of glucose was analyzed by measuring concentrations outside and inside a mucous membrane of an intestinal tract by a quantitative manner based on the glucose oxidase method. How the absorption of glucose changed under coexistence of D-psicose and glucose was measured. Further, how a sugar absorption system changed was analyzed by using an intestinal tract of a rat administrated with D-psicose for a long time. […] After the lapse of a certain time, the solution on the serous membrane side was sampled and the glucose concentration was measured. By adding D-psicose at various concentrations, an influence of D-psicose upon transport of glucose from the mucous membrane side to the serous membrane side was studied.

O=C[C@H](O)[C@H](O)[C@H](O)[C@H](O)CO [D-allose]
proliferation of HaCaT cells (cell number over time) [1]: strongly inhibited proliferation; also recorded: has a proliferation inhibitory effect | glutamate concentration during the reperfusion [2]: completely inhibited | glutamate concentration during the ischemia ([2]; 45 minutes ischemia, versus control): inhibited in comparison with that in the control | inhibition rate of second peak of glutamate release (hyperperfusion after ischemia) ([3]; administration of D-allose): about 90% | inhibition rate of first peak of glutamate release (with ischemia) ([3]; pre-administration of D-allose): about 25%

O=C(CO)[C@H](O)[C@H](O)[C@H](O)CO [D-psicose]
number of appearing microglias [4]: reduced | rise of glucose concentration on the serous membrane side [5]: significantly inhibited
